Measurements reported in US9149038B2, “4-amino-6-(heterocyclic)picolinates and 6-amino-2-(heterocyclic)pyrimidine-4-carboxylates and their use as herbicides” (Dow AgroSciences LLC, priority 2013, dated 2015).
Like-named read-outs stand apart in the source and are kept apart here.

Test system: Direct Seeded Rice and weed species
Experiment: Postemergence herbicidal activity in direct seeded rice, visual rating after 20-22 days and probit GR20/GR50/GR80/GR90 (Table 14)
Assay type: in vivo
Conditions: for pest or weed control at 17.5 g/ha / pest or weed control at 35 g/ha / pest or weed control at 70 g/ha: post-emergence, 504 h, postemergence; for pest or weed control at 17.5 g/ha: 17.5 g ai/ha; for pest or weed control at 35 g/ha: 35 g ai/ha; for pest or weed control at 70 g/ha: 70 g ai/ha
In short: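 Rice and weeds grown in loam–sand soil (pH about 8.1) in greenhouse to 2nd–3rd true leaf, then sprayed postemergence at 187 L/ha in acetone/DMSO with 1.25% (v/v) Agri-dex crop oil. Injury rated visually 0–100 after 20-22 days versus untreated plants; GR20, GR50, GR80, GR90 obtained by probit analysis across dose rates.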

[1] = BRAPP (broadleaf signalgrass, Brachiaria platyphylla), read-out: Visual Growth Reduction (%) 21 Days After Application BRAPP
[2] = CYPDI (small-flower flatsedge, Cyperus difformis), read-out: Visual Growth Reduction (%) 21 Days After Application CYPDI
[3] = CYPES (yellow nutsedge, Cyperus esculentus), read-out: Visual Growth Reduction (%) 21 Days After Application CYPES
[4] = CYPIR (rice flatsedge, Cyperus iria), read-out: Visual Growth Reduction (%) 21 Days After Application CYPIR
[5] = DIGSA (large crabgrass, Digitaria sanguinalis), read-out: Visual Growth Reduction (%) 21 Days After Application DIGSA
[6] = ECHCG (barnyardgrass, Echinochloa crus-galli), read-out: Visual Growth Reduction (%) 21 Days After Application ECHCG
[7] = ECHCO (junglerice, Echinochloa colonum), read-out: Visual Growth Reduction (%) 21 Days After Application ECHCO
[8] = LEFCH (Chinese sprangletop, Leptochloa chinensis), read-out: Visual Growth Reduction (%) 21 Days After Application LEFCH
[9] = ORYSJ (Oryza sativa, rice crop), read-out: Visual Growth Reduction (%) 21 Days After Application ORYSJ
[10] = ORYSK (Oryza sativa, rice crop), read-out: Visual Growth Reduction (%) 21 Days After Application ORYSK
[11] = SCPJU (Japanese bulrush, Schoenoplectus juncoides Roxb.), read-out: Visual Growth Reduction (%) 21 Days After Application SCPJU
[12] = SEBEX (hemp sesbania, Sesbania exaltata), read-out: Visual Growth Reduction (%) 21 Days After Application SEBEX

## Nc1c(F)c(-c2ccc3c(c2F)OC(F)(F)O3)nc(C(=O)O)c1Cl [Compound 11]
BRAPP (Brachiaria platyphylla), probit analysis, dose for 50 percent growth reduction
  GR50 BRAPP: 7 g ai/ha
BRAPP (Brachiaria platyphylla), probit analysis, dose for 80 percent growth reduction
  GR80 BRAPP: 16 g ai/ha
BRAPP (Brachiaria platyphylla), probit analysis, dose for 90 percent growth reduction
  GR90 BRAPP: 25 g ai/ha
CYPDI (Cyperus difformis), probit analysis, dose for 50 percent growth reduction
  GR50 CYPDI: 3 g ai/ha
CYPDI (Cyperus difformis), probit analysis, dose for 80 percent growth reduction
  GR80 CYPDI: 7 g ai/ha
CYPDI (Cyperus difformis), probit analysis, dose for 90 percent growth reduction
  GR90 CYPDI: 10 g ai/ha
CYPES (Cyperus esculentus), probit analysis, dose for 50 percent growth reduction
  GR50 CYPES: <18 g ai/ha
CYPES (Cyperus esculentus), probit analysis, dose for 80 percent growth reduction
  GR80 CYPES: <18 g ai/ha
CYPES (Cyperus esculentus), probit analysis, dose for 90 percent growth reduction
  GR90 CYPES: <18 g ai/ha
CYPIR (Cyperus iria), probit analysis, dose for 50 percent growth reduction
  GR50 CYPIR: 5 g ai/ha
CYPIR (Cyperus iria), probit analysis, dose for 80 percent growth reduction
  GR80 CYPIR: 7 g ai/ha
CYPIR (Cyperus iria), probit analysis, dose for 90 percent growth reduction
  GR90 CYPIR: 7 g ai/ha
DIGSA (Digitaria sanguinalis), probit analysis, dose for 50 percent growth reduction
  GR50 DIGSA: 1 g ai/ha
DIGSA (Digitaria sanguinalis), probit analysis, dose for 80 percent growth reduction
  GR80 DIGSA: 4 g ai/ha
DIGSA (Digitaria sanguinalis), probit analysis, dose for 90 percent growth reduction
  GR90 DIGSA: 9 g ai/ha
ECHCG (Echinochloa crus-galli), probit analysis, dose for 50 percent growth reduction
  GR50 ECHCG: 7 g ai/ha
ECHCG (Echinochloa crus-galli), probit analysis, dose for 80 percent growth reduction
  GR80 ECHCG: 15 g ai/ha
ECHCG (Echinochloa crus-galli), probit analysis, dose for 90 percent growth reduction
  GR90 ECHCG: 23 g ai/ha
ECHCO (Echinochloa colonum), probit analysis, dose for 50 percent growth reduction
  GR50 ECHCO: 4 g ai/ha
ECHCO (Echinochloa colonum), probit analysis, dose for 80 percent growth reduction
  GR80 ECHCO: 9 g ai/ha
ECHCO (Echinochloa colonum), probit analysis, dose for 90 percent growth reduction
  GR90 ECHCO: 14 g ai/ha
LEFCH (Leptochloa chinensis), probit analysis, dose for 50 percent growth reduction
  GR50 LEFCH: 23 g ai/ha
LEFCH (Leptochloa chinensis), probit analysis, dose for 80 percent growth reduction
  GR80 LEFCH: 34 g ai/ha
LEFCH (Leptochloa chinensis), probit analysis, dose for 90 percent growth reduction
  GR90 LEFCH: 41 g ai/ha
ORYSJ (Oryza sativa, rice crop), probit analysis, dose for 20 percent growth reduction
  GR20 ORYSJ: 8 g ai/ha
ORYSK (Oryza sativa, rice crop), probit analysis, dose for 20 percent growth reduction
  GR20 ORYSK: 7 g ai/ha
SCPJU (Schoenoplectus juncoides Roxb.), probit analysis, dose for 50 percent growth reduction
  GR50 SCPJU: 0.04 g ai/ha
SCPJU (Schoenoplectus juncoides Roxb.), probit analysis, dose for 80 percent growth reduction
  GR80 SCPJU: 1 g ai/ha
SCPJU (Schoenoplectus juncoides Roxb.), probit analysis, dose for 90 percent growth reduction
  GR90 SCPJU: 2 g ai/ha
SEBEX (Sesbania exaltata), probit analysis, dose for 50 percent growth reduction
  GR50 SEBEX: 3 g ai/ha
SEBEX (Sesbania exaltata), probit analysis, dose for 80 percent growth reduction
  GR80 SEBEX: 7 g ai/ha
SEBEX (Sesbania exaltata), probit analysis, dose for 90 percent growth reduction
  GR90 SEBEX: 10 g ai/ha
[1]
  pest or weed control at 17.5 g/ha: 85 to 94%
  pest or weed control at 35 g/ha: 95 to 100%
  pest or weed control at 70 g/ha: 95 to 100%
[2]
  pest or weed control at 17.5 g/ha: 95 to 100%
  pest or weed control at 35 g/ha: 95 to 100%
  pest or weed control at 70 g/ha: 95 to 100%
[3]
  pest or weed control at 17.5 g/ha: 85 to 94%
  pest or weed control at 35 g/ha: 95 to 100%
  pest or weed control at 70 g/ha: 95 to 100%
[4]
  pest or weed control at 17.5 g/ha: 95 to 100%
  pest or weed control at 35 g/ha: 95 to 100%
  pest or weed control at 70 g/ha: 95 to 100%
[5]
  pest or weed control at 17.5 g/ha: 95 to 100%
  pest or weed control at 35 g/ha: 95 to 100%
  pest or weed control at 70 g/ha: 95 to 100%
[6]
  pest or weed control at 17.5 g/ha: 95 to 100%
  pest or weed control at 35 g/ha: 85 to 94%
  pest or weed control at 70 g/ha: 95 to 100%
[7]
  pest or weed control at 17.5 g/ha: 95 to 100%
  pest or weed control at 35 g/ha: 95 to 100%
  pest or weed control at 70 g/ha: 95 to 100%
[8]
  pest or weed control at 17.5 g/ha: 0 to 29%
  pest or weed control at 35 g/ha: 95 to 100%
  pest or weed control at 70 g/ha: 95 to 100%
[9]
  pest or weed control at 17.5 g/ha: 30 to 44%
  pest or weed control at 35 g/ha: 75 to 84%
  pest or weed control at 70 g/ha: 85 to 94%
[10]
  pest or weed control at 17.5 g/ha: 45 to 59%
  pest or weed control at 35 g/ha: 60 to 74%
  pest or weed control at 70 g/ha: 75 to 84%
[11]
  pest or weed control at 17.5 g/ha: 95 to 100%
  pest or weed control at 35 g/ha: 95 to 100%
  pest or weed control at 70 g/ha: 95 to 100%
[12]
  pest or weed control at 17.5 g/ha: 95 to 100%
  pest or weed control at 35 g/ha: 95 to 100%
  pest or weed control at 70 g/ha: 95 to 100%
